Laboratory results taken from patent publication US5366983A, “Use of quaternary ammonium compounds to remove salmonella contamination from meat products” (The Board of Trustees of The University of Arkansas, priority 1992, dated 1994).
“Also recorded” adds a separate entry of the source. Where two headings read alike, the source gives them in different places.

Assays:
[1] = test system: Salmonella typhimurium ATCC 14028 attached to human buccal epithelial cells; format: cell-based; settings: for adherence, mean value of attached bacteria: Table A-1
Method: Studies were conducted on the attachment of Salmonella typhimurium to human buccal epithelial cells using the modified procedure of Boussard et al., International J. Pharmaceutics 53: 253-256 (1989). In this study, the activities of cationic and anionic surfactant compounds as well as certain chelating agents were compared on the detachment of S. typhimurium from epithelial cells.
To this end, bacteria were grown on nutrient agar for 16 hours at 37° C. The cells were suspended in 0.008 M phosphate buffered saline (PBS) at pH 7.2 and washed two times at 4500 rpm for 10 minutes. The last suspension was diluted in PBS to obtain a cell concentration of 0.5 to 1×10^9 cells/ml. Human epithelial cells were obtained by swabbing the buccal surface of a healthy, nonsmoking donor. […] The number of living cells was estimated and the suspension diluted to 0.5 to 1×10^5 cells/ml.
Next, the suspension of the human buccal cells was mixed with an equal volume of the bacterial suspension (3.0 ml), or PBS (0.8 ml). Contact was allowed for 1.5 hours at 35° C. under agitation. The mixtures were then centrifuged for 10 minutes at 4500 rpm. Each suspension, 1.0 ml, was transferred into Eppendorf vials and washed with PBS at 1500 rpm for 10 minutes. After the washing, the cells were treated with 1.0 ml PBS or 1.0 ml of the test chemical solution. Treatment was performed by suspending and vortexing on a low speed for 30 seconds followed by centrifugation at 1500 rpm for 10 minutes.
After the treatment, the cells were washed once with PBS and then 20 μl of erythrosin B was added to each vial. The suspension was centrifuged at 1500 rpm for 10 minutes, and the cells were washed twice under the same conditions. The final pellet was suspended in 300 μl of PBS. This suspension was spread out onto microscope slides and dried overnight at room temperature. After counter staining with methylene blue, the slides were microscopically examined under oil immersion.

[2] = test system: Salmonella typhimurium on chicken skin; assay: Effect of surfactants on Salmonella attached to chicken skin, drumsticks (Tables F1-F4); settings: 4° C.
Method: The following experiments utilizing chicken legs were conducted to determine the killing potential of a variety of surfactants against Salmonella on the skin and free in solutions. To this end, chicken legs obtained from the Department of Agriculture at the University of Arkansas, Fayetteville, were incubated for thirty minutes at room temperature with a 1:5000 dilution of Salmonella typhimurium. The chicken legs were removed five at a time and then rinsed twice in tap water to remove the unattached and excess Salmonella. The rinse water was sampled, diluted, and then plated onto XLD pour plates. […] The chicken legs were then removed and rinsed twice in tap water to remove the released Salmonella and excess chemicals. Rinses were then sampled, diluted, and then plated onto XLD pour plates.
The chicken legs were then individually washed with 100 ml sterile double distilled water, and then shaken fifty times. Samples of the wash H2 O were diluted and plated onto XLD pour plates. The chicken legs were further swabbed after the washing step above. The swabs were then plated onto the XLD plates. A set of wash samples were enriched with TT Broth Base Hajna and then plated onto XLD plates.
All of the samples were plated in 1 ml aliquots onto XLD pour plates. A positive control sample incubated in sterile double distilled water at 4° C. was run for each of the aforementioned conditions. Treatments occurred at both 4° C. and 25° C. The data is reported as the mean number of CFU/ml. The ratio in the table represents the number of chicken legs out of a sample of ten chicken legs producing the notated number of colonies, as indicated by the +, ++, +++, or ++++.

[3] = test system: Salmonella typhimurium on chicken skin; assay: Prevention of attachment of Salmonella on excised chicken skin (Table F5); settings: for CFU/ml on XLD agar: rinse water; for CFU/ml on XLD agar / Nitrocellulose lift (# of colonies): 30 minutes at room temperature; for Nitrocellulose lift (# of colonies): skin
Method: To determine the ability of surfactants to inhibit attachment or produce detachment of Salmonella, the following experiment was conducted. A hole was bored into the bottom of a 150 ml specimen cup. Chicken skin was excised from a drum stick and then placed over the cap of the specimen cup, and then the cap was screwed on. S. typhimurium was diluted 1:5000 with PBS or a surfactant. The surfactants were diluted appropriately. The skin was then inoculated with the solution containing the S. typhimurium and the surfactant for 30 minutes at room temperature.
Following incubation, the skin was washed. The rinse water was diluted appropriately in PBS and then plated onto XLD pour plates. The S. typhimurium was counted and reported as CFU/ml. The skin was swabbed so as to remove any remaining S. typhimurium using a nitroellulose lift and the CFU's/ml on the lift were also counted.

[4] = test system: Salmonella typhimurium TA98; assay: Salmonella reversion assay after heating at 205° C., TA98; format: cell-based
Method: (§1) Test strains TA98 and TA100 were used. Again, mutagenicities were determined both in the absence and in the presence of the mammalian liver S9 activating system.
(§2) A response that was two times that of the solvent control was considered a positive response.

[5] = test system: Salmonella typhimurium TA100; assay: Salmonella reversion assay after heating at 205° C., TA100; format: cell-based
Method: as §1, §2

[6] = test system: Salmonella typhimurium TA98; assay: Salmonella reversion assay, TA98
Method: (§3) Test strains TA98 and TA100 were obtained from Bruce N. Ames (University of California, Berkley, Calif.). Mutagenicities were determined both in the absence of and in the presence of a mammalian liver S9 activating system. S9 is the 9000×g supernatant prepared from liver homogenates from Aroclor 1254 stimulated male Sprague Dawley rats. The S9 was purchased from Molecular Toxicology, Inc. (Anapolis, Md.).
(§4) Bacterial broth cultures were grown overnight at 37° with shaking in Oxoid Broth #2. For assays in the absence of S9, a 0.5 ml aliquot of 100 mM Sodium Phosphate Buffer, pH 7.4, was added to sterile 13×100 mm capped culture tubes. For assays in the presence of S9, a 0.5 ml aliquot of 10% S9 mix was added. The S9 mix consisted of 8 mM magnesium chloride, 33 mM potassium chloride, 5 mM glucose-6-phosphate, 4 mM NADP, 100 mM sodium phosphate, pH 7.4 and S9 in a concentration of approximately 1.46 mg protein/ml.
(§5) The culture tubes were placed in an ice bath and 0.1 ml of the bacterial suspension and 0.1 ml of a DMSO solution of the test compound were added. The mixture was vortexed gently and incubated at 37° for 20 minutes with shaking in a water bath. Molten top agar (2.0 ml) containing 0.5 mM histidine HCl and 0.5 mM biotin were added, and the mixture was vortexed gently and poured onto a minimal glucose plate. After allowing the agar to solidify, the plates were inverted and placed in a 37° incubator in the dark for 48 hours. The revertant (mutant) colonies were counted and the background lawn was examined on all plates. A response that was two times that of the DMSO solvent control was considered a positive response.

[7] = test system: Salmonella typhimurium TA100; assay: Salmonella reversion assay, TA100
Method: as §3, §4, §5

[8] = test system: Salmonella typhimurium ATCC 14028; assay: Effect on viability of Salmonella in suspension (Tables D-1 to D-3); format: cell-based; settings: for bacterial viability: Table D-3
Method: EC50 values for four of the compounds were calculated from the bactericidal activity of the compounds as a function of molar concentration by a nonlinear regression algorithm.
In addition to the quaternary ammonium compounds, the antimicrobial activities of chelating agents Na2 -EDTA and EGTA were investigated. Na2 -EDTA was purchased from the Sigma Chemical Company (St. Louis, Mo.). Na2 -EDTA was dissolved in 0.04 M PPB prior to the assay and further dilutions were made in the same buffer.
EGTA was purchased from the Aldrich Chemical Company (Milwaukee, Wis.). EGTA was dissolved in 0.04 M PPB according to the procedure described by Harafuji and Ogawa (J. Biochem. 87:1305-1312 (1980)). After heating EGTA for 15 minutes at 80° C., the pH was adjusted to 7.0 by addition of NaOH. EGTA was filter-sterilized using a 0.2 μm Acro disc filter (Gelman Sciences; Ann Arbor, Mich.) prior to the assay. Further dilutions were made in sterile PPB.

Compound | Enrichment, chicken legs out of ten ([2]; 0.1%) | Rinse H2O ([2]; 0.1%) | Surfactant Solution ([2]; 0.1%) | Swabs, chicken legs producing the notated number of colonies ([2]; 0.1%) | Swabs, colonies ([2]; 0.1%) | Wash H2O, chicken legs producing the notated number of colonies ([2]; 0.1%) | Wash H2O, colonies ([2]; 0.1%) | Enrichment, chicken legs out of ten ([2]; 0.5%) | Rinse H2O ([2]; 0.5%) | Surfactant Solution ([2]; 0.5%) | Swabs, chicken legs producing the notated number of colonies ([2]; 0.5%) | Swabs, colonies ([2]; 0.5%) | Enrichment, chicken legs out of ten ([2]; 1.0%) | Rinse H2O ([2]; 1.0%) | Surfactant Solution ([2]; 1.0%) | Swabs, chicken legs producing the notated number of colonies ([2]; 1.0%) | Swabs, colonies ([2]; 1.0%) | CFU/ml on XLD agar [3] | also measured
CCCCCCCCCCCCCCCC[n+]1ccccc1 [CPB, cetylpyridinium bromide] | – | – | – | – | – | – | – | – | – | – | – | – | – | – | – | – | – | – | adherence, mean value of attached bacteria ([1]; 10 ug/ml): 28 ± 28; adherence, mean value of attached bacteria ([1]; 25 ug/ml): 23 ± 17; adherence, mean value of attached bacteria ([1]; 50 ug/ml): 25 ± 10
C[C@H](CCC(=O)O)[C@H]1CC[C@H]2[C@@H]3CC[C@@H]4C[C@H](O)CC[C@]4(C)[C@H]3C[C@H](O)[C@]12C [Deoxycholic Acid, reference compound] | 10/10 | + (1-10) | ++ (11-100) | 10/10 | ++ (11-100) | 10/10 | ++ (11-100) | 10/10 | + (1-10) | + (1-10) | 10/10 | + (1-10) | 10/10 | + (1-10) | ++ (11-100) | 9/10 | ++ (11-100) | 90 CFU/ml | Wash H2O, chicken legs producing the notated number of colonies ([2]; 0.5%): 10/10; Wash H2O, colonies ([2]; 0.5%): ++ (11-100); Wash H2O, chicken legs producing the notated number of colonies ([2]; 1.0%): 10/10; Wash H2O, colonies ([2]; 1.0%): ++ (11-100)
Nc1ccc2cc3ccccc3cc2c1 [2aminoanthracene, reference compound] | – | – | – | – | – | – | – | – | – | – | – | – | – | – | – | – | – | – | control reversion frequency ([4]; TA98, +S9, 2.5 μg/plate): 909 ± 85 Revertants/plate; control reversion frequency ([5]; TA100, +S9, 2.5 μg/plate): 1103 ± 84 Revertants/plate; control reversion frequency ([6]; TA98, +S9, 2.5 μg/plate): 901 ± 90 Revertants/plate; control reversion frequency ([7]; TA100, +S9, 2.5 μg/plate): 1497 ± 68 Revertants/plate
O=C1NCCN1c1ncc([N+](=O)[O-])s1 [Niridazole, reference compound] | – | – | – | – | – | – | – | – | – | – | – | – | – | – | – | – | – | – | control reversion frequency ([4]; TA98, -S9, 0.2 μg/plate): 126 ± 7 Revertants/plate; control reversion frequency ([5]; TA100, -S9, 0.2 μg/plate): 729 ± 30 Revertants/plate; control reversion frequency ([6]; TA98, -S9, 0.2 μg/plate): 358 ± 19 Revertants/plate; control reversion frequency ([7]; TA100, -S9, 0.2 μg/plate): 637 ± 57 Revertants/plate
O=C(O)CN(CCOCCOCCN(CC(=O)O)CC(=O)O)CC(=O)O [EGTA, reference compound] | – | – | – | – | – | – | – | – | – | – | – | – | – | – | – | – | – | – | effect on bacteria attached to the epithelial cells (in words) ([1]; chelating agents, Na2-EDTA at 1250 μg/ml): no significant effect; bacterial viability ([8]; 1,250 μg/ml): 1.55 ± 0.09 × 10^9 CFU/ml; bacterial viability ([8]; 2,500 μg/ml): 1.45 ± 0.03 × 10^9 CFU/ml; bacterial viability ([8]; 5,000 μg/ml): 1.51 ± 0.18 × 10^8 CFU/ml; bactericidal effect against S. typhimurium (in words) ([8]; viability testing in suspension): ineffective; also recorded: no bactericidal effect
Benzalkonium Chloride [reference compound] | 1/10 | + (1-10) | 0 CFU/ml | 6/10 | + (1-10) | 4/10 | + (1-10) | 1/10 | 0 CFU/ml | 0 CFU/ml | 1/10 | + (1-10) | 0/10 | 0 CFU/ml | 0 CFU/ml | 1/10 | ++ (11-100) | 0 CFU/ml | Wash H2O, colonies ([2]; 0.5%): 0 CFU/ml; Wash H2O, colonies ([2]; 1.0%): 0 CFU/ml; Nitrocellulose lift (# of colonies) [3]: OG(R)
CC(C)(C)CC(C)(C)c1ccc(OCCOCC[N+](C)(C)Cc2ccccc2)cc1 [Benzethonium Chloride, reference compound] | 2/10 | + (1-10) | 0 CFU/ml | 9/10 | ++ (11-100) | 1/10 | + (1-10) | 0/10 | + (1-10) | 0 CFU/ml | 8/10 | ++ (11-100) | 0/10 | + (1-10) | 0 CFU/ml | 5/10 | ++ (11-100) | 10 CFU/ml | Wash H2O, chicken legs producing the notated number of colonies ([2]; 0.5%): 0/10; Wash H2O, chicken legs producing the notated number of colonies ([2]; 1.0%): 0/10; preventing attachment of S. typhimurium on chicken skin (in words) [3]: most effective in preventing Salmonella contamination of chicken skin; Nitrocellulose lift (# of colonies) [3]: 250 # of colonies
